Measurements from patent US11352308B2, “Compound and semiconductor material containing same” (DIC Corporation, priority 2016, dated 2022).

assay: Solubility in p-xylene at room temperature (25° C.), visual complete dissolution; format: physicochemical
Procedure: Solubility was evaluated by completely dissolving compound (101) visually by adding p-xylene at room temperature (25° C.).

| Solubility of compound | Structure (SMILES) |
| --- | --- |
| 1.3 wt % | CCCCCCc1ccc2cc3cc(-c4ccccc4)ccc3cc2c1 [Compound (101)] |
| 1.1 wt % | CCCCCCCc1ccc2cc3cc(-c4ccccc4)ccc3cc2c1 [Compound (102)] |
| 0.7 wt % | CCCCCCCCc1ccc2cc3cc(-c4ccccc4)ccc3cc2c1 [Compound (103)] |
| 0.7 wt % | CCCCCCCCCc1ccc2cc3cc(-c4ccccc4)ccc3cc2c1 [Compound (104)] |
| 0.4 wt % | CCCCCCCCCCc1ccc2cc3cc(-c4ccccc4)ccc3cc2c1 [Compound (105)] |
| 0.8 wt % | CCCCCCc1ccc2cc3cc(-c4ccc(C)cc4)ccc3cc2c1 [Compound (106)] |
| 0.4 wt % | CCCCCCCCCCc1ccc2cc3cc(-c4ccc(C)cc4)ccc3cc2c1 [Compound (107)] |
| <0.1 (which cannot accurately be wt % | c1ccc(-c2ccc3cc4cc(-c5ccccc5)ccc4cc3c2)cc1 [Compound (C101), reference compound] |
